This is an account of results in paper PMC8393326, “A Thermodynamic Analysis of the Binding Specificity between Four Human PDZ Domains and Eight Host, Viral and Designed Ligands” (Biomolecules, 2021).

Where two headings read alike, the source gives them in different places. Where no end group is shown, it is not given here.

In assay [1] the target is T1, PSD95-PDZ3 (Homo sapiens, UniProt P78352).
T1 construct: PSD95-PDZ3 (residues 302–415, according to PSD95 numbering); made in house; host or cells: Escherichia coli BL21-DE3
T1 sequence (P78352 302-415): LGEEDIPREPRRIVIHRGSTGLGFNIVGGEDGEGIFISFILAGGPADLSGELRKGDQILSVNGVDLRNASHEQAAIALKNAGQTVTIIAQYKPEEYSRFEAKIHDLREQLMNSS
In words: ITC titration of PSD95-PDZ3 with peptides. To be noted: for Kd: ITC, 25 °C, 50 mM potassium phosphate pH 7.5, protein 70 μM in cell, peptide 900 μM, single-site model, n 0.8 to 1.1; for interaction or not with PSD95 PDZ3: Figure 1 summary, ITC, and DSC where ITC showed no binding. The assay is classed as binding. Details: key to interaction or not with PSD95 PDZ3: The tick (✓) and the cross (✕) signs mean whether there is interaction or not, respectively, as demonstrated in this study; The tick (✓) and the cross (✕) signs mean whether there is interaction or not, respectively, as demonstrated in this study. The method, then:
(§1) The DNA encoding the sequences of PSD95-PDZ2 (residues 155–249, according to PSD95 numbering), PSD95-PDZ3 (residues 302–415, according to PSD95 numbering), nNOS-PDZ (residues 1–127, in nNOS numbering) and Erbin-PDZ (given generously by Prof. Sachdev Sidhu, University of Toronto, Toronto, ON, Canada), were sub-cloned into pBAT4 vector (EMBL Core Purification Facility, Heidelberg, Germany) and expressed in Escherichia coli BL21-DE3 cells. Protein purification was carried out as previously described. Briefly, cultures were over-expressed overnight and centrifuged. After cell lysis with a French press, the lysates were centrifuged and the pH of the supernatant was lowered down to a pH of 3 with diluted HCl. Upon centrifugation, ammonium sulfate was added to the samples, which were then injected into an AKTA FPLC for preparative size exclusion chromatography. Roughly 15 milligrams of protein per liter of LB culture were obtained and purity was determined by SDS-Page electrophoresis. MALDI-TOF spectrometry, performed at the Scientific Instrumentation Services (CIC) of the University of Granada (Granada, Spain), confirmed the molecular mass for each PDZ domain. Extinction coefficients, determined as described, were used to calculate sample concentration. Experimental samples were always prepared by extensive dialysis against 50 mM potassium phosphate buffer at a pH of 7.5 and 4 °C.
(§2) Calorimetric titrations of the PDZ domains with the peptides were undertaken at 25 °C on an ITC-200 titration microcalorimeter (Microcal Inc., Northampton, MA, USA), as previously described. Protein concentrations in the cell were routinely 70 μM and peptides solutions were prepared using the dialysis buffer to have a final concentration of 900 μM. Titrations were all made by injecting 2 μL volumes of ligand solution, with a final number of 19 injections per experiment. As a control and reference, independent experiments were carried out with only buffer in the calorimeter cell with the same ligand solutions to determine the corresponding heat dilution. The dilution isotherms were then subtracted from that obtained for protein titration. The binding stoichiometry, n, the dissociation constant, Kd and the corresponding enthalpy change, ΔH, were determined by fitting the resulting titration isotherm to a model considering a single ligand binding site using ORIGIN 7.0 (OriginLab Corporation, Northampton, MA, USA, 2002).
(§3) We performed ITC experiments at 25 °C between all the selected PDZ domains and peptides. For the sake of comparison, the experiments were all conducted in the same buffer conditions, 50 mM potassium phosphate and pH of 7.5, which presents the advantage of having an insignificant protonation heat, meaning that the experimentally determined enthalpy changes should just account for the net heat of reaction. A table summarizing all interactions is shown in Figure 1, whilst we have just included the successful experiments graphs, both in Figure 2 and in the SI (Figure S1).
Background: Isothermal titration calorimetry measures the heat released or taken up as one component is titrated into another.

Assay [2] concerns the target T2, Erbin-PDZ (Homo sapiens, UniProt Q96RT1).
T2 construct: made in house; host or cells: Escherichia coli BL21-DE3
In words: ITC titration of Erbin-PDZ with peptides. The assay is classed as binding. More on the design: key to interaction or not with Erbin PDZ: The tick (✓) and the cross (✕) signs mean whether there is interaction or not, respectively, as demonstrated in this study; The tick (✓) and the cross (✕) signs mean whether there is interaction or not, respectively, as demonstrated in this study. To be noted: for Kd: 50 mM potassium phosphate pH 7.5, protein 70 μM in cell, peptide 900 μM, single-site model, n 0.8 to 1.1; for interaction or not with Erbin PDZ: Figure 1 summary, ITC, and DSC where ITC showed no binding. The method, then:
as §1, §2, §3

The target of assay [3] is T3, PSD95-PDZ2 (Homo sapiens, UniProt P78352).
T3 construct: PSD95-PDZ2 (residues 155–249, according to PSD95 numbering); made in house; host or cells: Escherichia coli BL21-DE3
T3 sequence (P78352 155-249): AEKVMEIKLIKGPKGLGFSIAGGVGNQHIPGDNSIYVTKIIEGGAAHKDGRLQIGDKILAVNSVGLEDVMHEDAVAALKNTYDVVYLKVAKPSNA
In words: ITC titration of PSD95-PDZ2 with peptides. To be noted: for Kd: ITC, 25 °C, 50 mM potassium phosphate pH 7.5, protein 70 μM in cell, peptide 900 μM, single-site model, n 0.8 to 1.1; for interaction or not with PSD95 PDZ2: Figure 1 summary, ITC, and DSC where ITC showed no binding. It is filed as binding. More on the design: key to interaction or not with PSD95 PDZ2: The tick (✓) and the cross (✕) signs mean whether there is interaction or not, respectively, as demonstrated in this study; The tick (✓) and the cross (✕) signs mean whether there is interaction or not, respectively, as demonstrated in this study. How it is done: as §1, §2, §3

The target in assay [4] is T1, PSD95-PDZ3. To be noted: cited from earlier work. From the text: Unfortunately, the calorimetric traces for nNOS-PDZ are highly irreversible, which prevents an analysis that would potentially yield a Kd value. Instead, we can approximately estimate a Kd range based on previous cases in PDZ binding. We have taken as a reference two PDZ-peptide interactions. Firstly, the binding of PSD95-PDZ3 with the peptide KKETAV formerly described by us. We had previously performed both ITC and DSC with PSD95-PDZ3 and KKETAV. The concentrations ...

Another assay deals with nNOS-PDZ. In words: DSC of nNOS-PDZ with and without peptides (Tm displacement). It is filed as binding, human. To be noted: for ΔTm of nNOS-PDZ: DSC, PDZ:peptide 1:3, 50 mM potassium phosphate pH 7.5, nNOS-PDZ alone 55 °C; for interaction or not with nNOS PDZ: Figure 1 summary, no binding by ITC, interaction shown by DSC. Details: key to interaction or not with nNOS PDZ: The tick (✓) and the cross (✕) signs mean whether there is interaction or not, respectively, as demonstrated in this study; The tick (✓) and the cross (✕) signs mean whether there is interaction or not, respectively, as demonstrated in this study. The method, then: (§4) Experiments were carried out in a VP-DSC instrument from Microcal INC. as described elsewhere. The buffer conditions were the same as with ITC experiments, 50 mM buffer potassium phosphate at a pH of 7.5. For experiments including the peptides, the final concentration ratio was 1:3 (protein:peptide). Final data were obtained after treatment with ORIGIN 7.0 (OriginLab Corporation, Northampton, MA, USA, 2002).
(§5) The final ratio of PDZ:peptide was always 1:3. DSC is also a calorimetric technique but that allows finding a more subtle binding, weaker than that from ITC [33]. Undoubtedly, ITC presents greater advantages, since it gives an exhaustive characterization of the binding interaction, granting the whole thermodynamics of the system; nevertheless, if the interactions are out of the ITC range, usually when they are weak (Kd values in the mM range), it is not sensitive enough to detect binding. By contrast, DSC can detect weak binding by a displacement of the melting temperature (Tm) due to the stabilization that occurs upon binding. Essentially, when a ligand is bound to the protein, energy is needed to decouple the interacting pair before protein denaturalization. In this way, the Tm is increased and the ΔTm is proportional to the interaction energy.

The target of assay [5] is T3, PSD95-PDZ2. Briefly: DSC of PSD95-PDZ2 with and without peptides. The assay is classed as binding. To be noted: PDZ:peptide 1:3, 50 mM potassium phosphate pH 7.5 (Figure S2). The method, then: as §4, §5
The target in assay [6] is Erbin-PDZ. To be noted: ERBB2 C-terminal tail of 9 residues; cited from earlier work. From the text:
Again, no class II or III peptides were able to bind PSD95-PDZ3 either. […] Instead, the striking resu ...

T2 sequence (Q96RT1 1321-1410 limits assumed): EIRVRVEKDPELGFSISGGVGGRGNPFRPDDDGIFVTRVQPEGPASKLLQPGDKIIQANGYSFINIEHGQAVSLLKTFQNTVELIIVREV

For orientation: Kd means a measure of binding affinity in units of concentration. On to IAESSV [HTLV3 Tax], for which the dissociation constant (Kd) at PSD95-PDZ3 [1] stood at 43 ± 10 µM; at Erbin-PDZ [2] (ITC, 25 °C), 23 ± 9 µM; on PSD95-PDZ2 [3], 20 ± 3.8 µM.
Consider KKETAV, for which, at PSD95-PDZ3 [4] (DSC, PDZ:peptide 1:3), the “ΔTm of PSD95-PDZ3” value was “about 9 °C”. In the assay with PSD95-PDZ3 [4] (ITC, same concentrations as this study), the dissociation constant Kd was 1.5 µM.
For the substance “LLDEIAV [CAPON, C-terminus of CAPON, cytoplasmic protein; class II peptide, cognate nNOS partner]”, the “interaction or not with PSD95 PDZ3” value on PSD95-PDZ3 [1] is “✕”. Besides, in the assay on nNOS-PDZ, the “ΔTm of nNOS-PDZ” value amounted to 3 °C and the “interaction or not with nNOS PDZ” value was “✓”. Besides, the “interaction or not with Erbin PDZ” value at Erbin-PDZ [2] is “✕”. For the same substance, the “interaction or not with PSD95 PDZ2” value at PSD95-PDZ2 [3] is recorded as “✕”.
For the substance FRETEV [HTLV1 Tax], the Kd at PSD95-PDZ3 [1] was 3.8 ± 0.2 µM; at Erbin-PDZ [2] (ITC, 25 °C) it was 7.8 ± 0.9 µM; on PSD95-PDZ2 [3], 1.5 ± 0.1 µM.
Take KIATLV [AdV E4 ORF1]: on PSD95-PDZ2 [3], binding was put at a Kd of 11.5 ± 0.5 µM.
In the case of “GLDVPV (UniProt P04626 1250-1255, looked up, fragment) [ERBB2, six-residue C-terminal peptide of host receptor tyrosine kinase ERBB2, class II PDZ ligand]”, the “interaction or not with PSD95 PDZ3” value in the assay with PSD95-PDZ3 [1] was “✕”. In the assay with nNOS-PDZ, the “ΔTm of nNOS-PDZ” value was 2 °C and the “interaction or not with nNOS PDZ” value was “✓”. In addition, the “interaction or not with Erbin PDZ” value with Erbin-PDZ [2] is listed as “✕”. Besides, the “binding to Erbin-PDZ by ITC” value in the assay with Erbin-PDZ [2] (ITC, 25 °C, 50 mM potassium phosphate pH 7.5) is listed as “lack of binding”. Besides, the “interaction or not with PSD95 PDZ2” value in the assay with PSD95-PDZ2 [3] is “✕”.
For the substance TGWETWV [Erbin PDZ binder], the “ΔTm of PSD95-PDZ2” value at PSD95-PDZ2 [5] was “around 6 °C”. Besides, the dissociation constant (Kd) at Erbin-PDZ [2] (ITC, 25 °C) came to 0.24 ± 0.08 µM; on PSD95-PDZ2 [3], 5.7 ± 0.2 µM.
In the case of “VVKVDSV [MelR, C-terminal region of a melatonin receptor]”, the “interaction or not with PSD95 PDZ3” value on PSD95-PDZ3 [1] is given as “✕”. In addition, in the assay with nNOS-PDZ, the “ΔTm of nNOS-PDZ” value is 3 °C and the “interaction or not with nNOS PDZ” value is “✓”. Further, at Erbin-PDZ [2], the “interaction or not with Erbin PDZ” value is listed as “✕”. In addition, the “interaction or not with PSD95 PDZ2” value at PSD95-PDZ2 [3] is “✕”.
“EYLGLDVPV [ERBB2 C-terminal tail comprising 9 residues, literature value]”: the Kd on Erbin-PDZ [6] was approximately 50 µM.
